Experimental data reported in patent publication US20260262643A1, “HERBICIDAL BENZOXAZINES” (FMC CORPORATION, priority 2022, published 2026).

Tests used:
[1] = tested on: barnyardgrass; assay: Test C preemergence; type: in vivo, Echinochloa crusgalli; conditions: for Barnyardgrass plant response rating: preemergence, 0 to 100 scale (0 no effect, 100 complete control)
Procedure, shortened: (§1)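 Soil-applied (pre) and foliar (post, 1–2 leaf, 2–10 cm) sprays; surfactant-containing non-phytotoxic solvent vehicle; loam/sand substrate. Readout: visual % control at 10 d, greenhouse, versus untreated.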

[2] = tested on: blackgrass; assay: Test C preemergence; type: in vivo, Alopecurus myosuroides; conditions: for Blackgrass plant response rating: preemergence, 0 to 100 scale (0 no effect, 100 complete control)
Procedure, shortened: as §1

[3] = tested on: corn; assay: Test C preemergence; type: in vivo, Zea mays; conditions: for Corn plant response rating: preemergence, 0 to 100 scale (0 no effect, 100 complete control)
Procedure, shortened: as §1

[4] = tested on: green foxtail; assay: Test C preemergence; type: in vivo, Setaria viridis; conditions: for Foxtail, Green plant response rating: preemergence, 0 to 100 scale (0 no effect, 100 complete control)
Procedure, shortened: as §1

[5] = tested on: kochia; assay: Test C preemergence; type: in vivo, Bassia scoparia; conditions: for Kochia plant response rating: preemergence, 0 to 100 scale (0 no effect, 100 complete control)
Procedure, shortened: as §1

[6] = tested on: oat, wild; assay: Test C preemergence; type: in vivo, Avena fatua; conditions: for Oat, Wild plant response rating: preemergence, 0 to 100 scale (0 no effect, 100 complete control)
Procedure, shortened: as §1

[7] = tested on: pigweed, palmer; assay: Test C preemergence; type: in vivo, Amaranthus palmeri; conditions: for Pigweed, Palmer plant response rating: preemergence, 0 to 100 scale (0 no effect, 100 complete control)
Procedure, shortened: as §1

[8] = tested on: ragweed; assay: Test C preemergence; type: in vivo, Ambrosia artemisiifolia; conditions: for Ragweed plant response rating: preemergence, 0 to 100 scale (0 no effect, 100 complete control)
Procedure, shortened: as §1

[9] = tested on: ryegrass, Italian; assay: Test C preemergence; type: in vivo, Lolium multiflorum; conditions: for Ryegrass, Italian plant response rating: preemergence, 0 to 100 scale (0 no effect, 100 complete control)
Procedure, shortened: as §1

[10] = tested on: soybean; assay: Test C preemergence; type: in vivo, Glycine max; conditions: for Soybean plant response rating: preemergence, 0 to 100 scale (0 no effect, 100 complete control)
Procedure, shortened: as §1

[11] = tested on: wheat; assay: Test C preemergence; type: in vivo, Triticum aestivum; conditions: for Wheat plant response rating: preemergence, 0 to 100 scale (0 no effect, 100 complete control)
Procedure, shortened: as §1

[12] = tested on: barnyardgrass; assay: Test C postemergence; type: in vivo, Echinochloa crusgalli; conditions: 10 days, 0 to 100 scale (0 no effect, 100 complete control)
Procedure, shortened: as §1

[13] = tested on: blackgrass; assay: Test C postemergence; type: in vivo, Alopecurus myosuroides; conditions: 10 days, 0 to 100 scale (0 no effect, 100 complete control)
Procedure, shortened: as §1

[14] = tested on: corn; assay: Test C postemergence; type: in vivo, Zea mays; conditions: 10 days, 0 to 100 scale (0 no effect, 100 complete control)
Procedure, shortened: as §1

[15] = tested on: green foxtail; assay: Test C postemergence; type: in vivo, Setaria viridis; conditions: 10 days, 0 to 100 scale (0 no effect, 100 complete control)
Procedure, shortened: as §1

[16] = tested on: kochia; assay: Test C postemergence; type: in vivo, Bassia scoparia; conditions: 10 days, 0 to 100 scale (0 no effect, 100 complete control)
Procedure, shortened: as §1

[17] = tested on: oat, wild; assay: Test C postemergence; type: in vivo, Avena fatua; conditions: 10 days, 0 to 100 scale (0 no effect, 100 complete control)
Procedure, shortened: as §1

[18] = tested on: pigweed, palmer; assay: Test C postemergence; type: in vivo, Amaranthus palmeri; conditions: 10 days, 0 to 100 scale (0 no effect, 100 complete control)
Procedure, shortened: as §1

[19] = tested on: ragweed; assay: Test C postemergence; type: in vivo, Ambrosia artemisiifolia; conditions: 10 days, 0 to 100 scale (0 no effect, 100 complete control)
Procedure, shortened: as §1

[20] = tested on: ryegrass, Italian; assay: Test C postemergence; type: in vivo, Lolium multiflorum; conditions: 10 days, 0 to 100 scale (0 no effect, 100 complete control)
Procedure, shortened: as §1

[21] = tested on: soybean; assay: Test C postemergence; type: in vivo, Glycine max; conditions: 10 days, 0 to 100 scale (0 no effect, 100 complete control)
Procedure, shortened: as §1

[22] = tested on: wheat; assay: Test C postemergence; type: in vivo, Triticum aestivum; conditions: 10 days, 0 to 100 scale (0 no effect, 100 complete control)
Procedure, shortened: as §1

[23] = tested on: galium; assay: Test C postemergence; type: in vivo, Galium aparine; conditions: 10 days, 0 to 100 scale (0 no effect, 100 complete control)
Procedure, shortened: as §1

[24] = tested on: horseweed; assay: Test C postemergence; type: in vivo, Erigeron canadensis; conditions: 10 days, 0 to 100 scale (0 no effect, 100 complete control)
Procedure, shortened: as §1

[25] = tested on: barnyardgrass; assay: Test D flooded paddy test; type: in vivo, Echinochloa crus-galli; conditions: 250 g ai/ha, applied to paddy water, visual rating after 13 to 14 days, scale 0 to 100 (0 no effect, 100 complete control)
Procedure, shortened: (§2)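 Visual ratings from 0, meaning no effect, to 100, meaning complete control, were assigned against untreated controls 13 to 14 days after compounds were added to the floodwater of pots kept 3 cm deep, with plants at the 2-leaf stage.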

[26] = tested on: ducksalad; assay: Test D flooded paddy test; type: in vivo, Heteranthera limosa; conditions: 250 g ai/ha, applied to paddy water, visual rating after 13 to 14 days, scale 0 to 100 (0 no effect, 100 complete control)
Procedure, shortened: as §2

[27] = tested on: rice; assay: Test D flooded paddy test; type: in vivo, Oryza sativa; conditions: 250 g ai/ha, applied to paddy water, visual rating after 13 to 14 days, scale 0 to 100 (0 no effect, 100 complete control)
Procedure, shortened: as §2

[28] = tested on: sedge, umbrella; assay: Test D flooded paddy test; type: in vivo, Cyperus difformis; conditions: 250 g ai/ha, applied to paddy water, visual rating after 13 to 14 days, scale 0 to 100 (0 no effect, 100 complete control)
Procedure, shortened: as §2

[29] = Preemergence, 125 g ai/ha, 0 to 100 scale, 0 no effect, 100 complete control

CC(C)(C)c1ncn(-c2cccc(C(=O)N3CC(C(F)(F)F)Oc4c(Cl)cccc43)c2)n1 (centres unmarked) [Compound 353]
80: Oat, Wild plant response rating ([6]; 500 g ai/ha) | Plant response rating, Ryegrass, Italian [9, 29] | Plant response rating, Soybean ([21]; 500 g ai/ha, postemergence) | Plant response rating, Soybean ([21]; Postemergence, 125 g ai/ha)
90: Plant response rating, Foxtail, Green [4, 29] | Plant response rating, Pigweed, Palmer [7, 29] | Ryegrass, Italian plant response rating ([9]; 500 g ai/ha) | Plant response rating, Pigweed, Palmer ([18]; Postemergence, 125 g ai/ha) | Plant response rating, Galium ([23]; 500 g ai/ha, postemergence)
60: Plant response rating, Kochia ([16]; Postemergence, 125 g ai/ha) | Plant response rating, Ragweed ([19]; 500 g ai/ha, postemergence)
100: Foxtail, Green plant response rating ([4]; 500 g ai/ha) | Pigweed, Palmer plant response rating ([7]; 500 g ai/ha) | Plant response rating, Pigweed, Palmer ([18]; 500 g ai/ha, postemergence)
10: Corn plant response rating ([3]; 500 g ai/ha) | Plant response rating, Corn [3, 29] | Plant response rating, Wheat [11, 29] | Plant response rating, Barnyardgrass ([12]; Postemergence, 125 g ai/ha) | Plant response rating, Corn ([14]; 500 g ai/ha, postemergence) | Plant response rating, Corn ([14]; Postemergence, 125 g ai/ha)
40: Soybean plant response rating ([10]; 500 g ai/ha) | Plant response rating, Foxtail, Green ([15]; 500 g ai/ha, postemergence) | Plant response rating, Ryegrass, Italian ([20]; 500 g ai/ha, postemergence)
0: Plant response rating, Blackgrass [2, 29] | Plant response rating, Kochia [5, 29] | Ragweed plant response rating ([8]; 500 g ai/ha) | Plant response rating, Ragweed [8, 29] | Plant response rating, Blackgrass ([13]; Postemergence, 125 g ai/ha) | Plant response rating, Oat, Wild ([17]; 500 g ai/ha, postemergence) | Plant response rating, Oat, Wild ([17]; Postemergence, 125 g ai/ha) | Plant response rating, Horseweed ([24]; 500 g ai/ha, postemergence) | Plant response rating, Barnyardgrass (Flood) [25] | Plant response rating, Ducksalad (Flood) [26] | Plant response rating, Rice (Flood) [27] | Plant response rating, Sedge, Umbrella (Flood) [28]
70: Barnyardgrass plant response rating ([1]; 500 g ai/ha) | Kochia plant response rating ([5]; 500 g ai/ha) | Plant response rating, Kochia ([16]; 500 g ai/ha, postemergence) | Plant response rating, Galium ([23]; Postemergence, 125 g ai/ha)
50: Blackgrass plant response rating ([2]; 500 g ai/ha) | Plant response rating, Ragweed ([19]; Postemergence, 125 g ai/ha)
20: Plant response rating, Barnyardgrass [1, 29] | Plant response rating, Soybean [10, 29] | Plant response rating, Foxtail, Green ([15]; Postemergence, 125 g ai/ha) | Plant response rating, Ryegrass, Italian ([20]; Postemergence, 125 g ai/ha) | Plant response rating, Wheat ([22]; 500 g ai/ha, postemergence) | Plant response rating, Wheat ([22]; Postemergence, 125 g ai/ha) | Plant response rating, Horseweed ([24]; Postemergence, 125 g ai/ha)
30: Plant response rating, Oat, Wild [6, 29] | Wheat plant response rating ([11]; 500 g ai/ha) | Plant response rating, Barnyardgrass ([12]; 500 g ai/ha, postemergence) | Plant response rating, Blackgrass ([13]; 500 g ai/ha, postemergence)

Cc1cccc2c1OC(C(F)(F)F)CN2C(=O)c1cccc(-n2cnc(C(C)C)n2)c1 (racemic) [Compound 301]
60: Plant response rating, Pigweed, Palmer ([18]; 500 g ai/ha, postemergence) | Plant response rating, Ragweed ([19]; 500 g ai/ha, postemergence)
15: Plant response rating, Rice (Flood) [27]
90: Barnyardgrass plant response rating ([1]; 500 g ai/ha) | Blackgrass plant response rating ([2]; Test C, 125 g ai/ha) | Kochia plant response rating ([5]; 500 g ai/ha) | Oat, Wild plant response rating ([6]; 500 g ai/ha) | Pigweed, Palmer plant response rating ([7]; Test C, 125 g ai/ha) | Wheat plant response rating ([11]; 500 g ai/ha) | Plant response rating, Blackgrass ([13]; Postemergence, 125 g ai/ha)
70: Oat, Wild plant response rating ([6]; Test C, 125 g ai/ha) | Plant response rating, Foxtail, Green ([15]; 500 g ai/ha, postemergence) | Plant response rating, Ryegrass, Italian ([20]; Postemergence, 125 g ai/ha)
40: Wheat plant response rating ([11]; Test C, 125 g ai/ha) | Plant response rating, Barnyardgrass ([12]; 500 g ai/ha, postemergence)
85: Plant response rating, Sedge, Umbrella (Flood) [28]
30: Plant response rating, Ragweed ([19]; Postemergence, 125 g ai/ha)
100: Blackgrass plant response rating ([2]; 500 g ai/ha) | Foxtail, Green plant response rating ([4]; 500 g ai/ha) | Foxtail, Green plant response rating ([4]; Test C, 125 g ai/ha) | Pigweed, Palmer plant response rating ([7]; 500 g ai/ha) | Ryegrass, Italian plant response rating ([9]; 500 g ai/ha) | Ryegrass, Italian plant response rating ([9]; Test C, 125 g ai/ha) | Soybean plant response rating ([10]; 500 g ai/ha) | Plant response rating, Blackgrass ([13]; 500 g ai/ha, postemergence) | Plant response rating, Soybean ([21]; 500 g ai/ha, postemergence) | Plant response rating, Soybean ([21]; Postemergence, 125 g ai/ha) | Plant response rating, Galium ([23]; 500 g ai/ha, postemergence) | Plant response rating, Galium ([23]; Postemergence, 125 g ai/ha)
50: Barnyardgrass plant response rating ([1]; Test C, 125 g ai/ha) | Ragweed plant response rating ([8]; 500 g ai/ha) | Plant response rating, Kochia ([16]; Postemergence, 125 g ai/ha) | Plant response rating, Oat, Wild ([17]; 500 g ai/ha, postemergence) | Plant response rating, Wheat ([22]; 500 g ai/ha, postemergence)
55: Plant response rating, Ducksalad (Flood) [26]
0: Corn plant response rating ([3]; 500 g ai/ha) | Corn plant response rating ([3]; Test C, 125 g ai/ha) | Ragweed plant response rating ([8]; Test C, 125 g ai/ha) | Plant response rating, Horseweed ([24]; 500 g ai/ha, postemergence)
80: Kochia plant response rating ([5]; Test C, 125 g ai/ha) | Plant response rating, Corn ([14]; 500 g ai/ha, postemergence) | Plant response rating, Kochia ([16]; 500 g ai/ha, postemergence) | Plant response rating, Ryegrass, Italian ([20]; 500 g ai/ha, postemergence)
10: Soybean plant response rating ([10]; Test C, 125 g ai/ha) | Plant response rating, Barnyardgrass ([12]; Postemergence, 125 g ai/ha) | Plant response rating, Corn ([14]; Postemergence, 125 g ai/ha) | Plant response rating, Foxtail, Green ([15]; Postemergence, 125 g ai/ha) | Plant response rating, Pigweed, Palmer ([18]; Postemergence, 125 g ai/ha)
20: Plant response rating, Oat, Wild ([17]; Postemergence, 125 g ai/ha) | Plant response rating, Wheat ([22]; Postemergence, 125 g ai/ha) | Plant response rating, Horseweed ([24]; Postemergence, 125 g ai/ha) | Plant response rating, Barnyardgrass (Flood) [25]
